The values that follow come from patent US8357686B2, “Aryl-substituted polycyclic amines, method for the production thereof, and use thereof as a medicament” (Sanofi-Aventis Deutschland GmbH, priority 2004, dated 2013).

The test relates to female NMRI mice. As to the kind of experiment: Anorectic effect: cumulative condensed milk consumption in fasted mice. The format is in vivo. The conditions noted are these: oral dose 30 mg/kg by gavage after withdrawal of feed for 17 hours, condensed milk offered 30 minutes after administration, consumption determined for 7 hours, compared with vehicle-treated control animals. As for the experimental part:
The anorectic effect was tested on female NMRI mice. After withdrawal of feed for 17 hours, the test product was administered by gavage. The animals were housed singly with free access to drinking water and were offered condensed milk 30 minutes after administration of the product. The condensed milk consumption was determined every half hour for 7 hours, and the general wellbeing of the animals was observed. The measured milk consumption was compared with the vehicle-treated control animals.

With `CCCCOc1ccc(C(=O)Nc2ccc(OC[C@@H]3CCCN4CCCC[C@H]34)cc2)cc1` [Example 2, 4-Butoxy-N-{4-[(1R,9aR)-1-(octahydroquinolizin-1-yl)methoxy]phenyl}-benzamide], the “Reduction in cumulative milk consumption as % of the control” value is 73%.

As for `O=C(Nc1ccc(OC[C@@H]2CCCN3CCCC[C@H]23)cc1)N1CCC(c2ccc(Cl)cc2)CC1` [Example 37], the “Reduction in cumulative milk consumption as % of the control” value is 24%.
